Measurements reported in ChEMBL document CHEMBL4842375, “Discovery of a Potent Glutathione Peroxidase 4 Inhibitor as a Selective Ferroptosis Inducer” (J Med Chem, 2021).
Activity calls are given as the source filed them. No cut-off for these calls is given here.

Key:
[1] = biological target: T1, Phospholipid hydroperoxide glutathione peroxidase GPX4 (Homo sapiens) (UniProt P36969); assay: Inhibition of GPX4 in mouse 4T1 cells assessed as decrease in intracellular GPX4 activity at 5 uM after 6 hrs; format: cell-based
T1 sequence (whole entry): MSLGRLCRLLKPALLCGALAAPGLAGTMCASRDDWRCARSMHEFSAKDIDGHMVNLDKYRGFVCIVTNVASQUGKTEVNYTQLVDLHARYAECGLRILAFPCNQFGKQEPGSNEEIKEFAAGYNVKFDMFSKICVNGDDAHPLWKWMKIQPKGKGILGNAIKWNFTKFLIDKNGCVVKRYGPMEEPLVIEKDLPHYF

4T1 [2] = assay: Cytotoxicity against mouse 4T1 cells assessed as reduction in cell viability incubated for 48 hrs by MTT assay; format: functional, cell-based; conditions: 4T1, 48 h
MCF7 = assay: Cytotoxicity against human MCF7 cells assessed as reduction in cell viability incubated for 48 hrs by MTT assay; format: functional, cell-based; conditions: MCF7, 48 h
HT-1080 [3] = assay: Cytotoxicity against human HT-1080 cells assessed as reduction in cell viability incubated for 48 hrs by MTT assay; format: functional, cell-based; conditions: HT-1080, 48 h
HT-1080 [4] = assay: Cytotoxicity against human HT-1080 cells assessed as reduction in cell viability incubated for 48 hrs in presence of Fer-1 by MTT assay; format: functional, cell-based; conditions: HT-1080, 48 h
[5] = Selectivity index, ratio of IC50 for cytotoxicity against human HT-1080 cells in presence of Fer-1 to IC50 for cytotoxicity against human HT-1080 cells; format: functional
4T1 [6] = assay: Induction of ferroptosis in mouse 4T1 cells assessed as reversal of cytotoxicity after 48 hrs in presence of NAC by MTT assay; format: functional, cell-based
4T1 [7] = assay: Induction of ferroptosis in mouse 4T1 cells assessed as reversal of cytotoxicity after 48 hrs in presence of glutathione by MTT assay; format: functional, cell-based
4T1 [8] = assay: Induction of ferroptosis in mouse 4T1 cells assessed as reduction in GSH levels at 5 uM; format: functional, cell-based
[9] = Stability of compound in glutathione after 12 hrs by HPLC analysis; format: physicochemical
4T1 [10] = assay: Induction of LPO accumulation in mouse 4T1 cells assessed as increase in MDA level at 2.5 uM incubated for 6 hrs; format: functional, cell-based
4T1 [11] = assay: Induction of LPO accumulation in mouse 4T1 cells at 2.5 uM incubated for 6 hrs by C11-BODIPY staining based confocal laser scanning microscopic analysis; format: functional, cell-based
4T1 [12] = assay: Induction of LPO accumulation in mouse 4T1 cells at 2.5 uM incubated for 6 hrs in presence of Fer-1 by C11-BODIPY staining based confocal laser scanning microscopic analysis; format: functional, cell-based
4T1 [13] = assay: Induction of LPO accumulation in mouse 4T1 cells at 2.5 uM incubated for 6 hrs by C11-BODIPY staining based flow cytometric analysis; format: functional, cell-based
4T1 [14] = assay: Induction of LPO accumulation in mouse 4T1 cells at 2.5 uM incubated for 6 hrs in presence of Fer-1 by C11-BODIPY staining based flow cytometric analysis; format: functional, cell-based
4T1 [15] = assay: Induction of intracellular ROS generation in mouse 4T1 cells at 2.5 uM incubated for 6 hrs by DCFH-DA staining based confocal laser scanning microscopic analysis; format: functional, cell-based
4T1 [16] = assay: Induction of intracellular ROS generation in mouse 4T1 cells at 2.5 uM incubated for 6 hrs in presence of Fer-1 by DCFH-DA staining based confocal laser scanning microscopic analysis; format: functional, cell-based
4T1 [17] = assay: Induction of intracellular ROS generation in mouse 4T1 cells at 2.5 uM incubated for 6 hrs by DCFH-DA staining based flow cytometric analysis; format: functional, cell-based
4T1 [18] = assay: Induction of intracellular ROS generation in mouse 4T1 cells at 2.5 uM incubated for 6 hrs in presence of Fer-1 by DCFH-DA staining based flow cytometric analysis; format: functional, cell-based
4T1 [19] = assay: Effect on intracellular GSH level in mouse 4T1 cells assessed as reduction in GSH level; format: functional, cell-based
4T1 [20] = assay: Induction of ferroptosis in mouse 4T1 cells assessed as ruptured mitochondria at 5 uM incubated for 6 hrs by TEM analysis; format: functional
4T1 [21] = assay: Induction of ferroptosis in mouse 4T1 cells assessed as reduction in mitochondrial cristae at 5 uM incubated for 6 hrs by TEM analysis; format: functional, cell-based
4T1 [22] = assay: Induction of ferroptosis in mouse 4T1 cells assessed as increase in mitochondrial membrane density at 5 uM incubated for 6 hrs by TEM analysis; format: functional, cell-based
4T1 [23] = assay: Antitumor activity against mouse 4T1 cells xenografted in BALB/c mouse assessed as tumor growth inhibition at 15 mg/kg, iv administered every two days for total 5 times and monitered every two days by electronic caliper method; format: functional; conditions: 4T1, iv, 48 h, read-out: TGI
4T1 [24] = assay: Antitumor activity against mouse 4T1 cells xenografted in BALB/c mouse assessed as tumor growth inhibition at 30 mg/kg, iv administered every two days for total 5 times and monitered every two days by electronic caliper method; format: functional; conditions: 4T1, iv, 48 h, read-out: TGI
4T1 [25] = assay: Antitumor activity against mouse 4T1 cells xenografted in iv dosed BALB/c mouse assessed as tumor growth inhibition administered every two days for total 5 times and monitered every two days by electronic caliper method; format: functional, organism-based; conditions: dose 15-30 mg/kg
[26] = Toxicity in BALB/C mouse xenografted with mouse 4T1 cells assessed as change in body weight at 15 to 30 mg/kg, iv administered every two days for total 5 times and monitered every two days; format: organism-based; conditions: in vivo, dose 15-30 mg/kg
[27] = Toxicity in BALB/C mouse xenografted with mouse 4T1 cells assessed as change in biochemical indexes at 15 to 30 mg/kg, iv administered every two days for total 5 times and monitered every two days; format: organism-based; conditions: in vivo, dose 15-30 mg/kg
[28] = Toxicity in BALB/C mouse xenografted with mouse 4T1 cells assessed as change in morphology of tissues and cells at 15 to 30 mg/kg, iv administered every two days for total 5 times and monitered every two days; format: organism-based; conditions: in vivo, dose 15-30 mg/kg

inhibition [1]: 11.8% | Stabilty [9]: Stable
SMILES: O=C(NCCc1ccccc1)C(c1csc2ccccc12)N(C(=O)CCl)c1ccc(-c2cnco2)cc1 (centres undefined)
IC50 (4T1 [2]): 780 nM | IC50 (MCF7): 6.9 µM | IC50 (HT-1080 [3]): 150 nM | IC50 (HT-1080 [4]): 4.73 µM | Ratio IC50 [5]: 31.5 | Activity (4T1 [6]): Active | Activity (4T1 [7]): Active | Activity (4T1 [8]): Active | Activity (4T1 [10]): Active | Activity (4T1 [11]): Active | Activity (4T1 [12]): inactive | Activity (4T1 [13]): Active | Activity (4T1 [14]): inactive | Activity (4T1 [15]): Active | Activity (4T1 [16]): inactive | Activity (4T1 [17]): Active | Activity (4T1 [18]): inactive | Activity (4T1 [19]): inactive | Activity (4T1 [20]): Active | Activity (4T1 [21]): Active | Activity (4T1 [22]): Active | inhibition in vivo at 15 mg/kg (4T1 [23]): 33.2% | inhibition in vivo at 30 mg/kg (4T1 [24]): 55.1% | Activity (4T1 [25]): Dose-Dependent Effect | Activity [26]: Non-Toxic | Activity [27]: Non-Toxic | Activity [28]: Non-Toxic
